Here are results for eight compounds from ChEMBL document CHEMBL1201862, “PubChem BioAssay data set” (2004).

Each structure is given as a SMILES string.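 Growth conditions: 96-well plates. Treatment: test compound, 48 hours, 5 concentrations. Analysis: linear interpolation between bracketing concentrations; unreached endpoints set to highest concentration. Here, GI50 denotes the concentration required for 50% inhibition of growth.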 Active and inactive are the calls of the source. No stated cut-off is given here; in the data, active = GI50 up to about 1.1 µM and inactive = higher.

Test systems include DLD-1; DMS-273; HOP-18; LXFL 529; M19-MEL; RXF 631; SNB-78; XF498; DMS-114.
Experiment in all cases: growth of human tumour cells (NCI), 48 h

For the compound `O=C1NN=C(c2ccc([N+](=O)[O-])cc2)C1n1nc(-c2ccccc2)c2ccccc2c1=O` (stereo unspecified), the GI50 in the assay with DLD-1 was > 50.7 µM (inactive); with DMS-273, > 46 µM (inactive); in the assay on HOP-18, > 100 µM (inactive); in the assay with LXFL 529, > 100 µM (inactive); in the assay on M19-MEL, > 100 µM (inactive); with RXF 631, > 100 µM (inactive). Besides, the GI50 in the assay with SNB-78 and with XF498 was > 100 µM (inactive) in each case.
With `O=C1c2ccccc2C(=O)N1CCn1nc(-c2ccccc2)cc(-c2ccccc2)c1=O`, the GI50 in the assay with DLD-1 was > 100 µM (inactive); in the assay with DMS-114, > 100 µM (inactive); in the assay on DMS-273, 49.5 µM (inactive); in the assay on HOP-18, 42.6 µM (inactive); in the assay on LXFL 529, 52.2 µM (inactive); in the assay on M19-MEL, 69.3 µM (inactive). The GI50 was 27.7 µM (inactive) in the assay on RXF 631 and > 100 µM (inactive) in the assay with SNB-78.
In the case of `Oc1cccc2nc3cc(CN4CCOCC4)c(CN4CCOCC4)cc3nc12`, the GI50 was 61 µM (inactive) with DLD-1; 54.7 µM (inactive) in the assay on DMS-273; 59.7 µM (inactive) in the assay with HOP-18; 48.1 µM (inactive) in the assay on LXFL 529; 25.9 µM (inactive) in the assay on M19-MEL; 56.4 µM (inactive) in the assay with RXF 631. The GI50 in the assay on SNB-78 and in the assay on XF498 was > 100 µM (inactive) each time.
Take `COc1cc2ccc3c4c(OC)cc(OC)c(OC)c4c([O-])[n+](C)c3c2cc1OC`: the GI50 in the assay with DMS-114 is 2.37 µM (inactive); in the assay on DMS-273 it was 0.428 µM (active); in the assay on HOP-18 it was > 100 µM (inactive); in the assay with LXFL 529, 1.79 µM (inactive); in the assay on M19-MEL, 6.46 µM (inactive); in the assay on RXF 631, > 100 µM (inactive). For the same compound, the GI50 was 10.2 µM (inactive) in the assay with SNB-78 and 2.34 µM (inactive) in the assay with XF498.
Regarding `NC(=O)c1csc(CCCCCCc2nc(C(N)=O)cs2)n1`, the GI50 is > 73.6 µM (inactive) in the assay on DLD-1; > 71.3 µM (inactive) with DMS-114; > 100 µM (inactive) in the assay with DMS-273; > 100 µM (inactive) in the assay with HOP-18; > 100 µM (inactive) with LXFL 529; 18.7 µM (inactive) in the assay with M19-MEL. Further, the GI50 with RXF 631 and with SNB-78 was > 100 µM (inactive) throughout.
`CNC(C)Cc1ccc(O)cc1` (stereo unspecified): the GI50 in the assay with DLD-1, with DMS-114, in the assay on DMS-273, in the assay with HOP-18, in the assay with LXFL 529 and in the assay with RXF 631 was > 100 µM (inactive) throughout. Further, the GI50 in the assay on SNB-78 and in the assay on XF498 was > 100 µM (inactive) each time.
Take `O=C1C(=O)N(c2cc(Cl)ccc2Cl)C(=O)C(=O)C1c1nc2ccccc2o1`: the GI50 in the assay on DLD-1 was > 100 µM (inactive); with DMS-114, > 89.1 µM (inactive); with DMS-273, > 100 µM (inactive); with HOP-18, 63.1 µM (inactive); with LXFL 529, > 100 µM (inactive); in the assay with M19-MEL, > 100 µM (inactive). The GI50 in the assay with RXF 631, in the assay with SNB-78 and in the assay on XF498 was > 100 µM (inactive) each time.
On to `C#C[C@H]1CCCCCC1O` (stereo partly specified), for which the GI50 in the assay with DLD-1 was > 100 µM (inactive); in the assay with DMS-114, > 100 µM (inactive); in the assay with DMS-273 it was > 100 µM (inactive); with HOP-18 it was 54.6 µM (inactive); in the assay on LXFL 529, 96.8 µM (inactive); in the assay on M19-MEL, > 100 µM (inactive). For the same compound, the GI50 with RXF 631, with SNB-78 and in the assay with XF498 was > 100 µM (inactive) in each case.
